Laboratory results: patent publication US5929236A, “2-substituted morpholine and thiomorpholine derivatives as GABA-B antagonists” (Schering Corporation, priority 1995, dated 1999)

Tests used:
[1] = target: prejunctional GABAB receptors (Cavia porcellus, UniProt A0A286X9P6); assay: In Vitro Assay (guinea pig trachea, reversal of baclofen inhibition of EFS-induced contractions); assay type: cell-based, guinea pig (male Hartley); settings: 30 μmol/L baclofen; for IC30: guinea pig trachea
Procedure: Male Hartley guinea pigs (450-650 g) are sacrificed by stunning and the trachea removed proximal to the carina and cut into 5 mm segments. The segments are attached to isometric force displacement transducers (Model FT03: Grass Instruments) and suspended in 15 mL organ baths filled with low Ca^2+ (0.6 mmol/L) Tyrode's buffer solution (pH 7.4) supplemented with 5.6 mmol/L glucose, 30 μmol/L choline and 2 μmol/L indomethacin. The solution is bubbled with a mixture of 95% O2 +5% CO2 and maintained at 37° C. The tracheal segments are allowed to equilibrate for 90 minutes under a resting tension of 0.5 g.
Platinum electrodes are placed on either side of the trachea and electrical field stimulation (EFS) (20 V, 8 Hz, 0.5 ms pulse for 5 s) was generated each minute from an electrical stimulator (Model S-88: Grass Instruments) and delivered to the electrodes through a stimulus distributor (Buxco Electronics). The stimulation parameters are chosen as appropriate for producing cholinergic contractions of the trachea that are sensitive to the inhibitory effects of compounds acting at prejunctional GABAB receptors. Contractile responses were recorded on a polygraph (Harvard Apparatus). The compound to be tested is added to the bath 10 min. before addition of 30 μmol/L baclofen. The effect of baclofen treatment in the absence or in the presence of the compound to be tested is expressed as a percent inhibition of EFS-induced contractions.

GABAB receptors = target: T1, GABAB receptors (Rattus norvegicus, UniProt Q9Z0U4); assay: GABAB Receptor Binding Assay ([3H]GABA, rat brain synaptosomes)
T1 construct: Rat brain synaptosomes are used as a source of GABAB receptors; from tissue; host or cells: rat brain synaptosomes
T1 sequence (Q9Z0U4 17-960 limits assumed): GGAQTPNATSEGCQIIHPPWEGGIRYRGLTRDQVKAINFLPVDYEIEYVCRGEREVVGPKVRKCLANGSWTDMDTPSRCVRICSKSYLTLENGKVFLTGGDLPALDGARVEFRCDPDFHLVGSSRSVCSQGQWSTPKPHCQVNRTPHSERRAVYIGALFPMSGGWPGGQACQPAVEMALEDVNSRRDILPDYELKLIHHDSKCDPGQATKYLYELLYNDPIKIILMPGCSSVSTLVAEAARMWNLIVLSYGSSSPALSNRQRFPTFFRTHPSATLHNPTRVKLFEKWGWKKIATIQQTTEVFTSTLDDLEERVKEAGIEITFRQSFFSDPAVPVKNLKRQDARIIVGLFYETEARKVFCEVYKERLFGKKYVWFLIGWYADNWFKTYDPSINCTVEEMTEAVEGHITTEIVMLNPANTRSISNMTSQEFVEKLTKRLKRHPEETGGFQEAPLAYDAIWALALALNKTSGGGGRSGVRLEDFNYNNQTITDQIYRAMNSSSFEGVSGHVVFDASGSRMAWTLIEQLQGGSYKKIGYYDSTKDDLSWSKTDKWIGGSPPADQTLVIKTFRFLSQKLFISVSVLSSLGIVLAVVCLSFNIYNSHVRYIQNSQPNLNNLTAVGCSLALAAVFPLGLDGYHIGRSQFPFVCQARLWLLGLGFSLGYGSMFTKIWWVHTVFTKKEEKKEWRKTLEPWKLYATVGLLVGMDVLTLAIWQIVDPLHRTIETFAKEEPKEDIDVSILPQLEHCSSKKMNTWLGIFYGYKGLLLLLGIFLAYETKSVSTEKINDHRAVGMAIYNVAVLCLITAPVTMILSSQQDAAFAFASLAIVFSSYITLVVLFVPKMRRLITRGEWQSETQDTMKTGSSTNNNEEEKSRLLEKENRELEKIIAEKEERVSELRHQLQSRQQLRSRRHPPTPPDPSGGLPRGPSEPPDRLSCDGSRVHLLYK
T1 sequence (O88871 41-940 partner): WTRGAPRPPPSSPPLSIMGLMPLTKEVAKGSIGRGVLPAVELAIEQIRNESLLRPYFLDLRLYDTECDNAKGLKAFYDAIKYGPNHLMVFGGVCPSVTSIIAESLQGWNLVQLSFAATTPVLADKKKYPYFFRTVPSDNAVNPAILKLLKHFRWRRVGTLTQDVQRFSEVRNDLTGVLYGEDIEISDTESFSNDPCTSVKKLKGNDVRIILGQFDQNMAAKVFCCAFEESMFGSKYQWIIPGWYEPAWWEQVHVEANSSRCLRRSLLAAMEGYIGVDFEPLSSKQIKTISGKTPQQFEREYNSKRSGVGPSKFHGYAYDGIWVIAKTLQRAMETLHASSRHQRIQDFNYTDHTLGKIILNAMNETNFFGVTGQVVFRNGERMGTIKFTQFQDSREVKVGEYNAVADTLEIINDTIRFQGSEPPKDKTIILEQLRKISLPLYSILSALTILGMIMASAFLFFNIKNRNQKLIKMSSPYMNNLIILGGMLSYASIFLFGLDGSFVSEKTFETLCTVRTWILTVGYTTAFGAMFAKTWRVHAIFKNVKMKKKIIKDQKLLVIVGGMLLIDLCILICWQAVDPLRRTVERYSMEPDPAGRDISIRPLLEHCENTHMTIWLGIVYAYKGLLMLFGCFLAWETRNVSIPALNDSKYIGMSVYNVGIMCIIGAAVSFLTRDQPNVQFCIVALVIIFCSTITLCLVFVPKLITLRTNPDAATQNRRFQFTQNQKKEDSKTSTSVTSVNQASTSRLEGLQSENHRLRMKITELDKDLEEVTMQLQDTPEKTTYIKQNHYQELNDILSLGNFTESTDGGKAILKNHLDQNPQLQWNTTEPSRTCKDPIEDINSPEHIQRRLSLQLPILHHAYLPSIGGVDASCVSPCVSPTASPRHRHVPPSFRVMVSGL
Procedure: GABAB Receptor Binding Assay
The percentage inhibition of GABA binding to GABAB receptors is measured by tritiated GABA ([^3 H]GABA) determination of the degree of binding by scintillation counting. Rat brain synaptosomes are used as a source of GABAB receptors. An incubation medium is prepared from the following: 20 μg/mL of the compound to be tested as a solution in 1% DMSO/water; 5 nM [^3 H]GABA; 50 mM Tris buffer (pH 7.5); and 2.5 mM CaCl2. The medium also contains 40 μM isoguvacine to selectively block binding to GABAA receptors. The synaptosome (200 μg/mL) is added to the incubation medium and incubated for 30 minutes at 20° C. The incubation is terminated by filtration and counted to determine the percentage inhibition of [^3 H]-GABA binding. The results are reported as IC50 values for those compounds inhibiting [^3 H]-GABA binding by >50%.

GABAB = settings: literature, in words; cited from earlier work
[2] = test system: Respiratory Depressant Effect of Baclofen; assay: Inhibition of Respiratory Depressant Effect of Baclofen; assay type: in vivo, guinea pig; settings: baclofen alone (3 mg/kg, sc)
Procedure: (§1) Animal Model for Respiratory Depression:
Place unanesthetized guinea pigs in a head-out plethysmograph and expose to a CO2 enriched gas mixture (10% CO2, 21% O2, 69% N2) for 10 min., (see Danko, et al., J. Pharm. Methods, 19, 165-173 (1988)). Plethysmograph pressure is detected with a transducer connected to a chart recorder. Minute ventilation is calculated as the product of tidal volume and respiratory frequency. The compound to be tested is administered orally, subcutaneously (sc), intraperitoneally (ip) or via an intracerebroventricular route (icv). Baclofen (3 mg/kg, sc) was given 30 min before exposure to the CO2 enriched gas. […] A 40 or 30 min. preteratment is used for the subcutaneous and intraperitoneal routes, respectively. The vehicle for oral, sc or ip administration is saline. For icv administration, single icv cannulae are placed in the lateral ventricle of anesthetized guinea pigs, (see McLeod, et al., Eur. J. Pharmacol., 209, 141-142 (1988)). The animals are allowed to recover approximately one week prior to use for ventilation experiments. The vehicle for icv administration is artificial cerebrospinal fluid (CSF).

[3] = test system: Respiratory Depressant Effect of Baclofen; assay: Reversal of the Respiratory Depressant Effect of Baclofen via icv Administration; assay type: in vivo, guinea pig; settings: baclofen plus vehicle
Procedure: as §1
Place unanesthetized guinea pigs in a head-out plethysmograph and expose to a CO2 enriched gas mixture (10% CO2, 21% O2, 69% N2) for 10 min., (see Danko, et al., J. Pharm. Methods, 19, 165-173 (1988)). Plethysmograph pressure is detected with a transducer connected to a chart recorder. Minute ventilation is calculated as the product of tidal volume and respiratory frequency. The compound to be tested is administered orally, subcutaneously (sc), intraperitoneally (ip) or via an intracerebroventricular route (icv). Baclofen (3 mg/kg, sc) was given 30 min before exposure to the CO2 enriched gas. When given by the oral route, the compounds is administered 1, 3, 5 or 7 h before exposure to CO2 enriched gas. A 40 or 30 min. preteratment is used for the subcutaneous and intraperitoneal routes, respectively. The vehicle for oral, sc or ip administration is saline. For icv administration, single icv cannulae are placed in the lateral ventricle of anesthetized guinea pigs, (see McLeod, et al., Eur. J. Pharmacol., 209, 141-142 (1988)). The animals are allowed to recover approximately one week prior to use for ventilation experiments. The vehicle for icv administration is artificial cerebrospinal fluid (CSF).

[4] = literature (Olpe, et al), in words; cited from earlier work
[5] = 5 nM [3H]GABA, rat brain synaptosomes, 20° C., 30 min

Chain of prejunctional GABAB receptors (A0A286X9P6 30-844): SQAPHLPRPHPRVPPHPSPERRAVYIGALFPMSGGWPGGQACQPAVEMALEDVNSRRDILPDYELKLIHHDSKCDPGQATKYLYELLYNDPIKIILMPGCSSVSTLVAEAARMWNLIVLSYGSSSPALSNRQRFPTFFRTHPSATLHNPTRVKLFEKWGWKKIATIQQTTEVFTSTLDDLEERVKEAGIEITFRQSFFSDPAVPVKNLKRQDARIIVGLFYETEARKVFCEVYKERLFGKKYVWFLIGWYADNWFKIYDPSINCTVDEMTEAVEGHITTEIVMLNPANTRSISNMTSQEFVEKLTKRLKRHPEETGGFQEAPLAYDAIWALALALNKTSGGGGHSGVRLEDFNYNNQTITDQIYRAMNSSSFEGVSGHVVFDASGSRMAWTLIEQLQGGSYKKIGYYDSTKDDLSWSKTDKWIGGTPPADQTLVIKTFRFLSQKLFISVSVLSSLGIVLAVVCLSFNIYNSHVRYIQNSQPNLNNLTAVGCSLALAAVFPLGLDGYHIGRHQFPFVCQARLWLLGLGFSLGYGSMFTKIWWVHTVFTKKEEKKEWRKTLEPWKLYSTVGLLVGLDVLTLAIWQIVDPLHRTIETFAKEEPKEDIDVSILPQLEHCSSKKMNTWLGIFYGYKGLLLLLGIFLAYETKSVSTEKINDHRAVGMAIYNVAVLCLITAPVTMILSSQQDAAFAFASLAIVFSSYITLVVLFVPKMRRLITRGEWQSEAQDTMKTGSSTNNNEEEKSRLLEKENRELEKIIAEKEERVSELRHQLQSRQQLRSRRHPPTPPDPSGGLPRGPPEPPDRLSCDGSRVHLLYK
Chain of prejunctional GABAB receptors (H0V741 1-820 partner): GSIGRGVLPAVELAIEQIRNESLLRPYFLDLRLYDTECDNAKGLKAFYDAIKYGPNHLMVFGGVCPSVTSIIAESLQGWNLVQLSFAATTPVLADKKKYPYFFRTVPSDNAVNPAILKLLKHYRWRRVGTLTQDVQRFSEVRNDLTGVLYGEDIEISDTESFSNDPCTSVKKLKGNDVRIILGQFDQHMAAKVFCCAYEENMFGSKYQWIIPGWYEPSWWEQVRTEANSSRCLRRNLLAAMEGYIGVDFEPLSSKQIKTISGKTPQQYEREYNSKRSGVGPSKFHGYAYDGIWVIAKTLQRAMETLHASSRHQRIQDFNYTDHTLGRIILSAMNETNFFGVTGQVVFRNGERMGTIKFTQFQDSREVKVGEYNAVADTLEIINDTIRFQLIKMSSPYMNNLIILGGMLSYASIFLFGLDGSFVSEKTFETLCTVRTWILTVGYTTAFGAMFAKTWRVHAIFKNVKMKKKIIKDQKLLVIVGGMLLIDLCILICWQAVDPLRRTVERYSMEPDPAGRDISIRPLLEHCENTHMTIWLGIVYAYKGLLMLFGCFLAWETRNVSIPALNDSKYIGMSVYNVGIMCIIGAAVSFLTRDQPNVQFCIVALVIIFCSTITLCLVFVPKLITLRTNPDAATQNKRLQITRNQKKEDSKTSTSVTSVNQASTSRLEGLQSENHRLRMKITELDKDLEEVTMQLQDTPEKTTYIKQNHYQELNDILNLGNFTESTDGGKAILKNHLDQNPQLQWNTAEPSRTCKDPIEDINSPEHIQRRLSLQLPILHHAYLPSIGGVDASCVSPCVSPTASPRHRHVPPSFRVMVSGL

Compound	inhibition at 100 µM ([1]; 100 μM) [%]	inhibition at 300 µM [1] [%]	IC50 (GABAB receptors; [5]) [µM]	also measured
O=C(O)CC1CNCCO1 (stereo not drawn)	59	46	50	–
CC1CNCC(CC(=O)O)S1 (stereo not drawn)	21	–	> 100	–
CC[C@@H]1CO[C@H](CC(=O)O)CN1	50	–	100	–
CC[C@H]1CO[C@H](CC(=O)O)CN1	17	–	> 100	–
CC1(C)COC(CP(C)(=O)O)CN1 (stereo not drawn)	100	–	2	IC30 [1]: 1.9 µM
CP(=O)(O)CC1CNC2(CCCC2)CO1 (stereo not drawn)	–	–	3	IC30 [1]: 3.3 µM
C[C@H]1CS[C@@H](CC(=O)O)CN1 (relative stereo) [Example 13B]	55	–	60	–
C[C@@H]1CS[C@@H](CC(=O)O)CN1 (relative stereo) [Example 13C]	81	88	20	–
C[C@@H]1CO[C@@H](CC(=O)O)CN1 (relative stereo) [Example 14A]	63	75	30	–
C[C@H]1CO[C@@H](CC(=O)O)CN1 (relative stereo) [Example 14]	74	95	20	–
CC[C@]1(CO)CO[C@@H](CC(=O)O)CN1 (relative stereo) [Example 18]	50	–	100 ± 40	–
CC[C@@]1(CO)CO[C@@H](CC(=O)O)CN1 (relative stereo) [Example 19]	90	99	19 ± 10	–
C[C@]1(CO)CO[C@@H](CC(=O)O)CN1 (relative stereo) [Example 20]	–	–	3.8	inhibition at 30 µM ([1]; 30 μM): 24%
C[C@@]1(CO)CO[C@@H](CC(=O)O)CN1 (relative stereo) [Example 21]	–	–	–	IC30 [1]: 0.85 µM
CC1(C)COC(CC(=O)O)CN1 (single isomer, unassigned) [Example 6B]	–	42	> 100	In Vitro % inhibition ([1]; 100 μM): 8%
NCC(O)(CS(=O)(=O)O)c1ccc(Cl)cc1 (stereo not drawn) [2-hydroxy saclofen]	–	–	–	GABAB receptor affinity (GABAB): low affinity
NCC(CC(=O)O)c1ccc(Cl)cc1 (stereo not drawn) [Baclofen, reference compound]	–	–	–	Inhibition of ventilation [2]: 44-60%; Inhibition of ventilation [3]: 82 ± 5%
CCOC(OCC)P(=O)(O)CCCN [CGP 35348, 3-aminopropyl(diethoxymethyl)phosphinic acid]	–	–	–	Penetration of the blood/brain barrier [4]: can penetrate the blood/brain barrier; GABAB receptor affinity (GABAB): low receptor affinity (comparable to 2-hydroxy saclofen)
CC1(C)COC(CC(=O)O)CN1 (stereo not drawn) [Example 2]	96	100	6	IC30 [1]: 1.5 µM
O=C(O)CC1CNC2(CC2)CO1 (stereo not drawn) [Example 9A]	76	–	37 ± 12	–
O=C(O)CC1CNC2(CCCC2)CO1 (stereo not drawn) [Example 9]	95	97	10	–
CC[C@@H]1CO[C@@H](CC(=O)O)CN1 [Example 11]	82	95	14	–
O=C(O)CC1CNCCS1 (stereo not drawn) [Example 16]	44	–	–	IC50 (GABAB receptors; unit inferred): > 100 µM
CP(=O)(O)CC1CN(Cc2ccccc2)CCO1 (stereo not drawn) [Example 23]	31	–	> 100	–
CP(=O)(O)CC1CNCCO1 (stereo not drawn) [Example 24]	100	98	6	–
